Reference: PubChem BioAssay (NCI)
“And” between values parts separate entries of the source, which are not always exact repeats. Equal entries are not always repeated.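 Growth conditions: 96-well plates. Treatment: test compound, 48 hours, 5 concentrations. Analysis: linear interpolation between bracketing concentrations; unreached endpoints set to highest concentration. GI50 = concentration required for 50% inhibition of growth. TGI denotes the concentration required for complete inhibition of growth.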

Columns and labels:
Assay in all cases: DTP human tumour cell line panel, 48 h
[1] = test system: 786-0 renal
[2] = test system: A498 renal
[3] = test system: A549 NSCLC
[4] = test system: ACHN renal
[5] = test system: BT-549 breast
[6] = test system: CAKI-1 renal
[7] = test system: CCRF-CEM leukemia
[8] = test system: COLO 205 colon
[9] = test system: DU-145 prostate
[10] = test system: EKVX NSCLC
[11] = test system: HCC-2998 colon
[12] = test system: HCT-116 colon
[13] = test system: HCT-15 colon
[14] = test system: HL-60(TB) leukemia
[15] = test system: HOP-62 NSCLC
[16] = test system: HOP-92 NSCLC
[17] = test system: HS 578T breast
[18] = test system: HT29 colon
[19] = test system: IGROV1 ovarian
[20] = test system: K-562 leukemia
[21] = test system: KM12 colon
[22] = test system: LOX IMVI melanoma
[23] = test system: M14 melanoma
[24] = test system: MALME-3M melanoma
[25] = test system: MCF7 breast
[26] = test system: MDA-MB-231 breast
[27] = test system: MDA-MB-435
[28] = test system: MDA-N
[29] = test system: MOLT-4 leukemia
[30] = test system: NCI-H226 lung
[31] = test system: NCI-H23 lung
[32] = test system: NCI-H460 lung
[33] = test system: NCI-H522 lung
[34] = test system: NCI/ADR-RES ovarian
[35] = test system: OVCAR-3 ovarian
[36] = test system: OVCAR-4 ovarian
[37] = test system: OVCAR-5 ovarian
[38] = test system: OVCAR-8 ovarian
[39] = test system: PC-3 prostate
[40] = test system: RPMI-8226 leukemia
[41] = test system: RXF 393 renal
[42] = test system: SF-268 CNS
[43] = test system: SF-295 CNS
[44] = test system: SF-539 CNS
[45] = test system: SK-MEL-2 melanoma
[46] = test system: SK-MEL-28 melanoma
[47] = test system: SK-MEL-5 melanoma
[48] = test system: SK-OV-3 ovarian
[49] = test system: SN12C renal
[50] = test system: SNB-19 CNS
[51] = test system: SNB-75 CNS
[52] = test system: SR leukemia
[53] = test system: SW-620 colon
[54] = test system: T-47D breast
[55] = test system: TK-10 renal
[56] = test system: U251 CNS
[57] = test system: UACC-257 melanoma
[58] = test system: UACC-62 melanoma
[59] = test system: UO-31 renal

Cc1cc(O)c2c(c1)C(=O)C=CC2=O
GI50 [1]: 5.8 µM and 2.59 µM
TGI [1]: 12.9 µM and > 21.6 µM
TGI [2]: 40.7 µM and 75.2 µM
TGI [3]: 58 µM and 42.9 µM
GI50 [4]: 4.43 µM and 4 µM
TGI [4]: 8.57 µM and 15.6 µM
GI50 [5]: 15.5 µM and 6.9 µM
TGI [5]: 30.3 µM and 21 µM
GI50 [6]: 5.57 µM and 2.21 µM
TGI [6]: 13 µM and 6.47 µM
TGI [7]: 0.564 µM and 1.19 µM
TGI [8]: 7.97 µM and > 21.2 µM
TGI [9]: 30.8 µM and 46.7 µM
GI50 [10]: 7.46 µM and 3.6 µM
TGI [10]: 20.6 µM and 15.2 µM
TGI [11]: 25.4 µM and 30 µM
TGI [12]: 10.2 µM and > 20.2 µM
GI50 [13]: 7.78 µM and 3.53 µM
TGI [13]: 24.9 µM and 9.83 µM
GI50 [14]: 0.0336 µM and 0.31 µM
TGI [14]: 0.202 µM and 1.89 µM
TGI [15]: 44.7 µM and 34.2 µM
GI50 [16]: 2.33 µM and 2.51 µM
TGI [16]: 5.15 µM and 7.69 µM
TGI [17]: 54.6 µM and 64.3 µM
TGI [18]: 12.3 µM and 21.3 µM
TGI [19]: 27.4 µM and 24.1 µM
GI50 [20]: 0.322 µM and 1.25 µM
TGI [21]: 32.9 µM and 32.5 µM
TGI [22]: 12.6 µM and > 100 µM
TGI [23]: 25.7 µM and 21.7 µM
GI50 [24]: 10.2 µM and 1.86 µM
TGI [24]: 23.2 µM and 8.39 µM
TGI [25]: 11.3 µM and 21.8 µM
TGI [26]: 25.3 µM and 18.6 µM
GI50 [27]: 4.8 µM and 1.93 µM
TGI [27]: 11.7 µM and 4.25 µM
TGI [28]: 9.13 µM and 4.68 µM
TGI [29]: 1.71 µM and 1.61 µM
TGI [30]: 42.4 µM and 39.2 µM
TGI [31]: 27.9 µM and 23 µM
TGI [32]: 45.5 µM and 31.1 µM
GI50 [33]: 3.8 µM and 1.46 µM
TGI [33]: 8.05 µM and 3.06 µM
TGI [34]: 37 µM and 47.2 µM
TGI [35]: 10 µM and 10.2 µM
GI50 [36]: 14.5 µM and 6.75 µM
TGI [36]: 28.8 µM and 19.5 µM
TGI [37]: 43.1 µM and 34.4 µM
GI50 [38]: 14.1 µM and 4.75 µM
TGI [38]: 43.9 µM and 14.8 µM
TGI [39]: 46.3 µM and 25.5 µM
GI50 [40]: 3.29 µM and 0.39 µM
TGI [40]: 17.9 µM and 3.44 µM
TGI [41]: 9.57 µM and 9.17 µM
TGI [42]: 48.3 µM and 31.5 µM
TGI [43]: 32.7 µM and 39 µM
TGI [44]: 31.4 µM and 30.8 µM
TGI [45]: 36.8 µM and 44.3 µM
GI50 [46]: 20.4 µM and 8.89 µM
TGI [46]: 35.5 µM and 23.6 µM
GI50 [47]: 7.53 µM and 2.27 µM
TGI [47]: 22.4 µM and 6.77 µM
TGI [48]: > 84.2 µM
TGI [49]: 21.9 µM and 28.6 µM
TGI [50]: 46.7 µM and 31.2 µM
TGI [51]: 34 µM and 30 µM
GI50 [52]: 1.14 µM and 0.33 µM
GI50 [53]: 7.3 µM and 2.67 µM
TGI [53]: 23.9 µM and 22.4 µM
TGI [54]: 7.47 µM and 16.4 µM
GI50 [55]: 5.92 µM and 12.7 µM
TGI [55]: 15.6 µM and 26.9 µM
GI50 [56]: 14.2 µM and 5.29 µM
TGI [56]: 33.7 µM and 23.4 µM
GI50 [57]: 9.95 µM
TGI [57]: 11.3 µM and 27.8 µM
TGI [58]: 18.9 µM and 25.3 µM
TGI [59]: 11.4 µM and 16.2 µM
